Converted amounts (≈) assume the structure as drawn. Like-named read-outs stand apart in the source and are kept apart here.
Columns and labels:
[1] = tested on: Staphylococcus aureus strain UAMS-1; assay: Antimicrobial susceptibility testing (MIC, broth microdilution); type: cell-based; conditions: S. aureus UAMS-1, Mueller Hinton broth, 37° C.
Description: The RNase P inhibitors described herein were tested for antimicrobial activity toward Staphylococcus aureus strain UAMS-1. Individual wells of a 96-well microtiter plate were inoculated with ˜1×10^5 colony-forming units (CFU) of the indicated organism, containing two-fold increasing concentrations (from 0 to 256 μg mL^−1) of the indicated antibiotic or putative RnpA inhibitor, and incubated at 37° C. for 18 hours in Mueller Hinton broth. The MIC was defined as the lowest concentration of antibiotic in which there was no visible bacterial growth in the wells. Minimum bactericidal concentration testing was performed by enumerating the bacterial cells in each of the wells containing treatments at and above the MIC.

RnpA = target: T1, RnpA (Staphylococcus aureus, UniProt P0A0H5); assay: RnpA mRNA degradation activity assay; type: biochemical
T1 sequence (P0A0H5 1-117): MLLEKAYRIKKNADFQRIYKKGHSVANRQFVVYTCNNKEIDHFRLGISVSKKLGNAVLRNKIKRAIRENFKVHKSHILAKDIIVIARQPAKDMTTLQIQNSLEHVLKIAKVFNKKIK
Description: The RNase P inhibitors described herein were tested for activity toward RnpA mRNA degradation activity. Either 1 μg of total S. aureus RNA or 1 pmol of in vitro synthesized spa mRNA was incubated with 20 pmol RnpA at 37° C. for 15 to 30 min in a reaction buffer (50 mM Tris-HCl pH 8.0, 2 mM NaCl, 2 mM MgCl2) in the absence or presence of the indicated compound. Reactions were stopped by adding an equal volume of 2×RNA loading dye (95% formamide, 0.025% SDS, 0.025% bromophenol blue, 0.025% xylene cyanol FF, 0.5 mM EDTA), run on a denaturing 1.0% agarose-0.66 M formaldehyde gel and stained with ethidium bromide. RNA substrates and corresponding degradation products were visualized using a FluorChem 5500 system (Alpha Innotech; San Leandro, Calif.). The inhibitory effects of the test compounds were measured using Image J densitometry software (National Institutes of Health; Bethesda, Md.) to quantify the signal intensity of the RNA band(s) in the negative control (RNA alone), positive control (RnpA+RNA+DMSO), and experimental samples (RnpA+RNA+test compound). The percent enzyme inhibition of test compounds was calculated using the following equation: Percent inhibition=[(experimental signal-positive control)/(negative control signal-positive control signal)]*100.

[2] = target: T2, S. aureus RNase P (RnpA+rnpB) (Staphylococcus aureus, UniProt P0A0H5); assay: RNase P activity assay (precursor tRNA processing); type: biochemical; conditions: gel densitometry
T2 sequence (P0A0H5 1-117): T1 sequence (P0A0H5 1-117)
Description: The RNase P inhibitors described herein were tested for activity toward RNase P. S. aureus RNase P activity assays were performed in low salt buffer (50 mM Tris-HCl pH 8.0, 5 mM MgCl2) or in high salt buffer (50 mM Tris-HCl pH 8.0, 100 mM MgCl2, 800 mM NH4Cl). For all reactions, ptRNATyr, tRNATyr, or rnpB RNA species were first denatured by heating to 95° C. for 3 minutes, and then slowly cooling the mixtures to room temperature. RNase P was reconstituted by mixing an equal molar ratio of RnpB and RnpA for 15 min at 37° C. Precursor tRNA processing reactions (20 μL) were performed by mixing 1.25 pmol RNase P (RnpA+rnpB), RnpA, or rnpB with an equal volume of 2× low salt buffer or 2× high salt buffer and 10 pmol ptRNATyr. Mixtures were incubated for 15 min at 37° C. Reactions were stopped by adding 20 μL 2×RNA loading dye (95% formamide, 0.025% SDS, 0.025% bromophenol blue, 0.025% xylene cyanol FF, 0.5 mM EDTA), and 30 μL of each sample was electrophoresed in a 7 M urea/8% polyacrylamide gel and was then stained with ethidium bromide (0.5 μg/ml). Where indicated, reactions were repeated in the presence of the indicated amount of putative RnpA inhibitors or dimethyl sulfoxide (DMSO). A FluorChem 5500 imaging system was used to visualize the RNA, and the relative abundance of the mature tRNATyr band in the positive control (RNase P+DMSO) or in samples containing test compounds was measured using Image J densitometry software (NIH). The percent RNase P activity was then calculated using the following calculation: (test compound tRNATyr signal/positive control tRNATyr signal)*100.

S. aureus strain UAMS-1 = assay: Fractional Inhibitory Concentration testing with mupirocin; type: cell-based; conditions: combined with mupirocin, S. aureus UAMS-1, Mueller Hinton broth, 18 hours; synergistic FIC≤0.5
Description: The RNase P inhibitors described herein were tested for Fractional Inhibitory Concentration (FIC) in the presence of mupirocin. FIC testing was performed to determine the combined effects of mupirocin and the RnpA inhibitors as described herein. Individual wells of a 96-well microtiter plate were inoculated with 1×10^5 CFU of S. aureus strain UAMS-1 in a Mueller Hinton broth. Each row of the plate contained increasing concentrations of RNPA1000 or RNPA2000 (two-fold increments; 0, 0.004, 0.008, 0.016, 0.03, 0.06, 0.125, 0.25, 0.5, 1, 2, or 4×MIC), whereas each column contained increasing concentrations of the indicated antibiotic (two-fold increments; 0, 0.06, 0.125, 0.25, 0.5, 1, 2, or 4×MIC). Plates were incubated for 18 hours at 37° C., and growth was detected by the unaided eye. The FIC was determined using the following formula: (MIC of Drug A in Combination/MIC of Drug A Alone)+(MIC of Drug B in Combination/MIC of Drug B Alone)=FIC. A synergistic interaction was defined as an FIC value≤0.5, no interaction as an FIC of 0.5-4, or an antagonistic interaction FIC>4.

[3] = Staphylococcus aureus, UAMS1, 18 h, read-out: MIC
[4] = RnpA mRNA degradation, gel densitometry, read-out: RnpA IC50
[5] = ptRNATyr processing, read-out: RNase P IC50

MIC [1, 3] [µg/mL] | IC50 (RnpA; [4]) [µM] | IC50 [2, 5] [µM] | MIC ([1]; 18 hours) [µg/mL] | Structure (SMILES) | FIC with Mupirocin (S. aureus strain UAMS-1) | IC50 (RnpA) [µM] | IC50 ([2]; RNase P IC50, ptRNATyr processing) [µM]
64 (≈ 208 µM) | > 500 | > 500 |  | O=C(NNC(=S)NC(=O)c1ccco1)c1ccc(F)cc1 [ST5703018] | 0.625 |  | 
> 128 |  |  |  | O=C(COc1ccccc1)NNC(=S)NC(=O)c1ccco1 [MC-190079] | 0.75 |  | 
16 (≈ 49.8 µM) | > 500 |  |  | Cc1cc(C)cc(OCC(=O)NNC(=S)NC(=O)C2CC2)c1 [ST5523339] | 1 |  | 
32 (≈ 74 µM) | > 500 | 125 |  | O=C(COc1ccc(Cl)cc1Br)NNC(=S)NC(=O)c1ccco1 [ST5525958] | 0.75 |  | 
32 (≈ 97.2 µM) | > 500 | 370 |  | O=C(NC(=S)NNC(=O)C1C[C@H]1c1ccccc1)c1ccco1 (some centres unmarked) [MC-190068] | 0.5 |  | 
128 (≈ 319 µM) | 250 | > 500 |  | COc1ccccc1C(=O)NC(=S)NNC(=O)COc1ccc(C(C)C)cc1 [MC-190033] | 0.3125 |  | 
32 (≈ 74.5 µM) | > 500 | 230 |  | CCOc1ccc(C(=O)NC(=S)NNC(=O)COc2cc(C)ccc2C(C)C)cc1 [ST5528173] | 1 |  | 
8 (≈ 18.2 µM) |  | 350 |  | CC(C)c1ccc(OCC(=O)NNC(=S)NC(=O)c2ccco2)c(Br)c1 [ST5524693] | 0.49 |  | 
8 (≈ 18.8 µM) | 380 | 75 |  | Cc1ccc(OCC(=O)NNC(=S)NC(=O)c2ccc(Br)o2)c(C)c1 [ST5523326] | 0.375 |  | 
> 128 | > 500 | 75 |  | COc1ccccc1C(=O)NNC(=O)COc1ccc(C(C)C)cc1 [MC-190032] | 0.75 |  | 
8 (≈ 23 µM) | > 500 | > 500 |  | CCCOc1ccc(C(=O)NNC(=S)NC(=O)c2ccco2)cc1 [ST5684191] | 0.375 |  | 
64 (≈ 179 µM) |  |  |  | CC(C)c1ccc(/C=C/C(=O)NNC(=S)NC(=O)c2ccco2)cc1 [MC-190078] | 0.625 |  | 
 |  |  | 64 (≈ 211 µM) | Cc1ccc(C(=O)NNC(=S)NC(=O)c2ccco2)cc1 [MC-190073] | 0.75 |  | 
64 (≈ 183 µM) | > 500 | > 500 |  | COc1ccc(OCC(=O)NNC(=S)NC(=O)c2ccco2)cc1 [MC-190070] |  |  | 
> 256 | > 500 | > 500 |  | CC(C)c1ccc(OCC(=O)NNC(=O)c2ccsc2)cc1 [MC-190036] |  |  | 
 | > 500 | > 500 | 16 (≈ 52.4 µM) | O=C(NC(=S)NNC(=O)c1ccccc1O)c1ccco1 [ST5703881] |  |  | 
> 128 | 80 | 90 |  | CCCCC(=O)Nc1ccc(C(=O)NNC(=S)NC(=O)c2ccco2)cc1 [ST5526667] |  |  | 
128 (≈ 339 µM) |  |  |  | CCCOc1ccc(OCC(=O)NNC(=S)NC(=O)c2ccco2)cc1 [MC-190072] | 0.625 |  | 
> 128 |  |  |  | CC(C)c1ccc(OCC(=O)NNC(=S)NC(=O)c2cccc(-c3ccccc3)n2)cc1 [MC-190081] | 0.56 |  | 
> 128 | > 500 | > 500 |  | COc1ccccc1OCC(=O)NNC(=S)NC(=O)c1ccco1 [ST5682778] |  |  | 
32 (≈ 93.2 µM) | > 500 | > 500 |  | Cc1ccccc1C(=O)NNC(=S)NC(=O)COc1ccccc1 [ST5521953] |  |  | 
64 (≈ 203 µM) |  |  |  | O=C(/C=C/c1ccccc1)NNC(=S)NC(=O)c1ccco1 [MC-190074] | 0.625 |  | 
> 128 | > 500 | > 500 |  | O=C(NC(=S)NNC(=O)c1ccco1)c1ccc(F)c(F)c1 [ST5704832] |  |  | 
> 128 | > 500 | > 500 |  | O=C(NNC(=S)NC(=O)c1ccco1)c1ccncc1 [ST4145527] |  |  | 
16 (≈ 47.4 µM) | > 500 | > 500 |  | O=C(Cc1ccc(Cl)cc1)NNC(=S)NC(=O)c1ccco1 [ST5642600] |  |  | 
128 (≈ 441 µM) | > 500 | > 500 |  | O=C(NNC(=S)NC(=O)c1ccco1)c1cccnc1 [ST5254078] |  |  | 
> 128 |  |  |  | CC(C)c1ccc(OCC(=O)NNC(=S)NC(=O)c2ccc3ccccc3n2)cc1 [MC-190077] | 0.53 |  | 

Structure (SMILES) | MIC [1, 3] [µg/mL] | IC50 (RnpA; [4]) [µM] | IC50 [2, 5] [µM] | MIC ([1]; 18 hours) [µg/mL] | FIC with Mupirocin (S. aureus strain UAMS-1) | IC50 (RnpA) [µM] | IC50 ([2]; RNase P IC50, ptRNATyr processing) [µM]
CC(C)c1ccc(OCC(=O)NNC(=S)NC(=O)c2ccno2)cc1 [MC-190037] | 32 (≈ 88.3 µM) |  | > 500 |  | 0.625 |  | 
CC(C)c1ccc(OCC(=O)NNC(=S)NC(=O)c2cccnc2)cc1 [MC-190049] | 64 (≈ 172 µM) |  | 160 |  | 1 | > 500 | 
CC(C)c1ccc(OCC(=O)NNC(=S)NC(=O)c2ccsc2)cc1 [MC-190030] | 64 (≈ 170 µM) |  | 395 |  | 0.375 | > 500 | 
Cc1ccc(C(=O)NC(=S)NNC(=O)COc2ccc(C(C)C)cc2)o1 [MC-190044] | 32 (≈ 85.2 µM) | 30 | 105 |  | 0.49 |  | 
CC(C)c1ccc(OCC(=O)NNC(=S)NC(=O)c2cc3ccccc3n2C)cc1 [MC-190056] | 64 (≈ 151 µM) | 240 |  |  | 0.49 |  | 
COc1ccc2[nH]c(C(=O)NC(=S)NNC(=O)COc3ccc(C(C)C)cc3)cc2c1 [MC-190060] | 32 (≈ 72.6 µM) | 50 | < 50 |  | 0.49 |  | 
CC(C)c1ccc(OCC(=O)NNC(=S)NC(=O)c2c[nH]c3ccccc23)cc1 [MC-190055] | 32 (≈ 78 µM) | 40 | 90 |  | 0.56 |  | 
CC(C)c1ccc(OCC(=O)NNC(=S)NC(=O)c2cc3cc(F)ccc3[nH]2)cc1 [MC-190062] | 64 (≈ 149 µM) |  |  |  | 0.56 |  | 
O=C(COc1ccc(Cl)cc1Cl)NNC(=S)NC(=O)c1ccco1 [ST5682846] | 4 (≈ 10.3 µM) | > 500 |  |  |  |  | 80
Cc1ccoc1C(=O)NC(=S)NNC(=O)COc1ccc(C(C)C)cc1 [MC-190043] | 32 (≈ 85.2 µM) | 20 | 150 |  |  |  | 
